Measurements taken from PubChem BioAssay AID1195 (EPA DSSTox, 2008).

System: human maximum recommended daily dose, FDA database
Assay: DSSTox (FDAMDD) FDA Maximum (Recommended) Daily Dose Database
Details: active compounds read low
Summary of the method: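 MRDD values come from clinical trials with daily oral dosing, usually for 3–12 months, for the average adult, in mg/day converted to mg/kg-bw/day assuming 60 kg. Antineoplastic mg/m2 doses are divided by 37. Activity score maps log10(1/MRDD mmol) onto 1–100.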

[1] = TherapeuticCategory: antineoplastic
[2] = TherapeuticCategory: antibacterial
[3] = TherapeuticCategory: glucocorticoid
[4] = TherapeuticCategory: antidepressant

**Q.** O=C(O)c1[nH]n(-c2ccc(S(=O)(=O)O)cc2)c(=O)c1N=Nc1ccc(S(=O)(=O)O)cc1 was tested. Which maximum recommended daily dose (mmol/kg-bw/day) (TherapeuticCategory: dye) did it give?
**A.** The maximum recommended daily dose (mmol/kg-bw/day) was 0.014.

**Q.** How did the maximum recommended daily dose (mmol/kg-bw/day) (TherapeuticCategory: narcotic analgesic) turn out when Oc1ccc2c(c1)[C@@]13CCCC[C@@]1(O)[C@@H](C2)N(CC1CCC1)CC3 was run?
**A.** Its maximum recommended daily dose (mmol/kg-bw/day) is 0.000815.

**Q.** For COc1cc([C@@H]2c3cc4c(cc3C(O[C@@H]3O[C@@H]5COC(c6cccs6)O[C@H]5[C@H](O)[C@H]3O)C3COC(=O)[C@@H]32)OCO4)cc(OC)c1O (some centres not stated), which maximum recommended daily dose (mmol/kg-bw/day) [1] is on record?
**A.** Its maximum recommended daily dose (mmol/kg-bw/day) is 0.0107.

**Q.** CCOC(=O)C1=C(COCCN)NC(C)=C(C(=O)OC)C1c1ccccc1Cl (configuration not stated) was tested. Which maximum recommended daily dose (mmol/kg-bw/day) (TherapeuticCategory: antianginal, antihypertensive) did it give?
**A.** Its maximum recommended daily dose (mmol/kg-bw/day) is 0.000408.

**Q.** For Clc1ccc(C/C(=C\CN2CCCC2)c2ccccc2)cc1, which maximum recommended daily dose (mmol/kg-bw/day) (TherapeuticCategory: antihistaminic) is on record?
**A.** The maximum recommended daily dose (mmol/kg-bw/day) was 0.00481.

**Q.** With C[C@@H]1CN(c2c(F)c(N)c3c(=O)c(C(=O)O)cn(C4CC4)c3c2F)C[C@H](C)N1 as the compound, how does the maximum recommended daily dose (mmol/kg-bw/day) [2] read?
**A.** The maximum recommended daily dose (mmol/kg-bw/day) was 0.017.

**Q.** Which maximum recommended daily dose (mmol/kg-bw/day) (TherapeuticCategory: antihypertensive, diuretic) does the source give for NS(=O)(=O)c1cc2c(cc1C(F)(F)F)NCNS2(=O)=O here?
**A.** The maximum recommended daily dose (mmol/kg-bw/day) was 0.0101.

**Q.** How did the maximum recommended daily dose (mmol/kg-bw/day) (TherapeuticCategory: antiviral) turn out when NC(=O)c1ncn([C@@H]2O[C@H](CO)[C@@H](O)[C@H]2O)n1 was run?
**A.** Its maximum recommended daily dose (mmol/kg-bw/day) is 0.819.

**Q.** Which maximum recommended daily dose (mmol/kg-bw/day) [1] does the source give for N=c1ccn2c(n1)O[C@H]1[C@H](O)[C@@H](CO)O[C@H]12 here?
**A.** Its maximum recommended daily dose (mmol/kg-bw/day) is 0.0888.

**Q.** With COc1cc(NS(C)(=O)=O)ccc1Nc1c2ccccc2nc2ccccc12 as the compound, how does the maximum recommended daily dose (mmol/kg-bw/day) [1] read?
**A.** The maximum recommended daily dose (mmol/kg-bw/day) was 0.00823.

**Q.** Which maximum recommended daily dose (mmol/kg-bw/day) (TherapeuticCategory: antimalarial) does the source give for CCCCN(CCCC)CCC(O)c1cc2c(Cl)cc(Cl)cc2c2cc(C(F)(F)F)ccc12 (configuration not stated) here?
**A.** Its maximum recommended daily dose (mmol/kg-bw/day) is 0.05.

**Q.** O=C(OC[C@H]1O[C@](O)(COC(=O)c2cccnc2)[C@@H](OC(=O)c2cccnc2)[C@@H]1OC(=O)c1cccnc1)c1cccnc1 was tested. Which maximum recommended daily dose (mmol/kg-bw/day) (TherapeuticCategory: peripheral vasodilator) did it give?
**A.** Its maximum recommended daily dose (mmol/kg-bw/day) is 0.111.

**Q.** How did the maximum recommended daily dose (mmol/kg-bw/day) [3] turn out when CC(=O)OCC(=O)[C@@]1(O)[C@H](C)C[C@H]2[C@@H]3C[C@H](F)C4=CC(=O)C=C[C@]4(C)[C@H]3[C@@H](O)C[C@@]21C was run?
**A.** Its maximum recommended daily dose (mmol/kg-bw/day) is 0.000921.

**Q.** C[N+](C)(C)CCOC(=O)CCC(=O)OCC[N+](C)(C)C was tested. Which maximum recommended daily dose (mmol/kg-bw/day) (TherapeuticCategory: skeletal muscle relaxant) did it give?
**A.** Its maximum recommended daily dose (mmol/kg-bw/day) is 0.00304.

**Q.** How did the maximum recommended daily dose (mmol/kg-bw/day) [3] turn out when C[C@H]1C[C@H]2[C@@H]3CCC4=CC(=O)C=C[C@]4(C)[C@@]3(F)[C@@H](O)C[C@]2(C)[C@@]1(O)C(=O)CO was run?
**A.** The maximum recommended daily dose (mmol/kg-bw/day) was 0.000382.

**Q.** For NS(=O)(=O)c1cc2c(cc1C(F)(F)F)NC(Cc1ccccc1)NS2(=O)=O (configuration not stated), which maximum recommended daily dose (mmol/kg-bw/day) (TherapeuticCategory: diuretic, antihypertensive) is on record?
**A.** The maximum recommended daily dose (mmol/kg-bw/day) was 0.00079.

**Q.** With COc1ccc2nc(S(=O)Cc3ncc(C)c(OC)c3C)[nH]c2c1 (configuration not stated) as the compound, how does the maximum recommended daily dose (mmol/kg-bw/day) (TherapeuticCategory: antiulcerative) read?
**A.** The maximum recommended daily dose (mmol/kg-bw/day) was 0.00579.

**Q.** For C=CC[C@]1(O)CC[C@H]2[C@@H]3CCC4=CCCC[C@@H]4[C@H]3CC[C@@]21C, which maximum recommended daily dose (mmol/kg-bw/day) (TherapeuticCategory: progestogen) is on record?
**A.** Its maximum recommended daily dose (mmol/kg-bw/day) is 0.000832.

**Q.** How did the maximum recommended daily dose (mmol/kg-bw/day) [3] turn out when C[C@H]1C[C@@H]2[C@H]([C@@H](O)C[C@@]3(C)[C@H]2CC[C@]3(O)C(=O)COC(=O)CCCCCCC(=O)N(C)CCS(=O)(=O)O)[C@@]2(C)C=CC(=O)C=C12 was run?
**A.** Its maximum recommended daily dose (mmol/kg-bw/day) is 0.0061.

**Q.** How did the maximum recommended daily dose (mmol/kg-bw/day) [1] turn out when CC[C@]1(O)C[C@H]2CN(CCc3c([nH]c4ccccc34)[C@@](C(=O)OC)(c3cc4c(cc3OC)N(C)[C@H]3[C@@](O)(C(N)=O)[C@H](O)[C@]5(CC)C=CCN6CC[C@]43[C@@H]65)C2)C1 was run?
**A.** Its maximum recommended daily dose (mmol/kg-bw/day) is 0.000143.

**Q.** With O=C(O)C(Cl)Cl as the compound, how does the maximum recommended daily dose (mmol/kg-bw/day) (TherapeuticCategory: caustic, keratolytic, topical astringent) read?
**A.** The maximum recommended daily dose (mmol/kg-bw/day) was 0.517.

**Q.** For N[C@@H](Cc1cc(I)c(Oc2cc(I)c(O)c(I)c2)c(I)c1)C(=O)O, which maximum recommended daily dose (mmol/kg-bw/day) (TherapeuticCategory: hyperthyroidism) is on record?
**A.** Its maximum recommended daily dose (mmol/kg-bw/day) is 1.07e-05.

**Q.** Which maximum recommended daily dose (mmol/kg-bw/day) [1] does the source give for O=NN(CCCl)C(=O)N[C@@H]1[C@@H](O)[C@H](O)[C@@H](CO)O[C@@H]1O here?
**A.** Its maximum recommended daily dose (mmol/kg-bw/day) is 0.0129.

**Q.** Which maximum recommended daily dose (mmol/kg-bw/day) (TherapeuticCategory: antidiabetic) does the source give for Cc1ccc(S(=O)(=O)NC(=O)NN2CC3CCCC3C2)cc1 (configuration not stated) here?
**A.** Its maximum recommended daily dose (mmol/kg-bw/day) is 0.0165.

**Q.** Which maximum recommended daily dose (mmol/kg-bw/day) (TherapeuticCategory: analgesic) does the source give for NC(=O)c1ccccc1O here?
**A.** The maximum recommended daily dose (mmol/kg-bw/day) was 0.316.

**Q.** CCN1CC(CCN2CCOCC2)C(c2ccccc2)(c2ccccc2)C1=O (configuration not stated) was tested. Which maximum recommended daily dose (mmol/kg-bw/day) (TherapeuticCategory: respiratory stimulant) did it give?
**A.** Its maximum recommended daily dose (mmol/kg-bw/day) is 0.0106.

**Q.** How did the maximum recommended daily dose (mmol/kg-bw/day) [4] turn out when CC(CN(C)C)CN1c2ccccc2CCc2ccccc21 (configuration not stated) was run?
**A.** The maximum recommended daily dose (mmol/kg-bw/day) was 0.0113.

**Q.** Which maximum recommended daily dose (mmol/kg-bw/day) [4] does the source give for CN1CCN2c3ccccc3Cc3ccccc3C2C1 (configuration not stated) here?
**A.** Its maximum recommended daily dose (mmol/kg-bw/day) is 0.00567.

**Q.** With CC(=O)OCC1=C(C(=O)O)N2C(=O)[C@@H](NC(=O)CSc3ccncc3)[C@H]2SC1 as the compound, how does the maximum recommended daily dose (mmol/kg-bw/day) [2] read?
**A.** The maximum recommended daily dose (mmol/kg-bw/day) was 0.236.

**Q.** For Cn1c(=O)c2c(ncn2CC(O)CO)n(C)c1=O (configuration not stated), which maximum recommended daily dose (mmol/kg-bw/day) (TherapeuticCategory: bronchodilator) is on record?
**A.** Its maximum recommended daily dose (mmol/kg-bw/day) is 0.236.

**Q.** Which maximum recommended daily dose (mmol/kg-bw/day) (TherapeuticCategory: diuretic) does the source give for CC(=O)N=c1sc(S(N)(=O)=O)nn1C here?
**A.** The maximum recommended daily dose (mmol/kg-bw/day) was 0.0212.

**Q.** CC1OC(C)OC(C)O1 (configuration not stated) was tested. Which maximum recommended daily dose (mmol/kg-bw/day) (TherapeuticCategory: sedative, hypnotic) did it give?
**A.** The maximum recommended daily dose (mmol/kg-bw/day) was 1.89.

**Q.** With Cc1ncc(CO)c(CO)c1O as the compound, how does the maximum recommended daily dose (mmol/kg-bw/day) (TherapeuticCategory: enzyme cofactor vitamin) read?
**A.** Its maximum recommended daily dose (mmol/kg-bw/day) is 0.0394.

**Q.** Cc1cccc(Nc2ccncc2S(=O)(=O)NC(=O)NC(C)C)c1 was tested. Which maximum recommended daily dose (mmol/kg-bw/day) (TherapeuticCategory: diuretic) did it give?
**A.** Its maximum recommended daily dose (mmol/kg-bw/day) is 0.00956.

**Q.** Which maximum recommended daily dose (mmol/kg-bw/day) (TherapeuticCategory: roborant) does the source give for N[C@@H](CC(=O)O)C(=O)O here?
**A.** Its maximum recommended daily dose (mmol/kg-bw/day) is 0.751.

**Q.** How did the maximum recommended daily dose (mmol/kg-bw/day) (TherapeuticCategory: antiepileptic) turn out when CC1(C)O[C@@H]2[C@@H](CO[C@@]3(COS(N)(=O)=O)OC(C)(C)O[C@@H]23)O1 was run?
**A.** Its maximum recommended daily dose (mmol/kg-bw/day) is 0.0197.

**Q.** For O=C(OC1CC2CCC(C1)[N+]21CCCC1)C(O)(c1ccccc1)c1ccccc1 (configuration not stated), which maximum recommended daily dose (mmol/kg-bw/day) (TherapeuticCategory: antispasmodic) is on record?
**A.** Its maximum recommended daily dose (mmol/kg-bw/day) is 0.000467.
